# Experimental data from ChEMBL document CHEMBL1201862, “PubChem BioAssay data set” (2004).
#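 Interpolation was linear, between the two tested concentrations surrounding the appropriate level; five concentrations were tested over 48 hours in 96-well plates. Here, GI50 denotes the concentration required for 50% inhibition of growth.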 The source made the active and inactive calls. No stated cut-off is given here; in the data, active = GI50 up to about 1.1 µM and inactive = higher.
# How the values were obtained:
# Experiment in all cases: growth of human tumour cells (NCI), 48 h
# Malme-3M = tested on: Malme-3M
# NCI-H460 = tested on: NCI-H460
# SK-MEL-5 = tested on: SK-MEL-5
# SF-295 = tested on: SF-295
# M19-MEL = tested on: M19-MEL
# NCI-H23 = tested on: NCI-H23
# OVCAR-3 = tested on: OVCAR-3
# NCI-H522 = tested on: NCI-H522
# NCI-H226 = tested on: NCI-H226
# DLD-1 = tested on: DLD-1
# SN12C = tested on: SN12C
# HCT-15 = tested on: HCT-15
# KM-20L2 = tested on: KM-20L2
# OVCAR-4 = tested on: OVCAR-4
# CCRF-CEM = tested on: CCRF-CEM
# SF-539 = tested on: SF-539
# SF-268 = tested on: SF-268
# SW-620 = tested on: SW-620
# HL-60 = tested on: HL-60
# SNB-75 = tested on: SNB-75
# CAKI-1 = tested on: CAKI-1
# TK-10 = tested on: TK-10
# UACC-257 = tested on: UACC-257
# HCC 2998 = tested on: HCC 2998
# SK-OV-3 = tested on: SK-OV-3
# RPMI-8226 = tested on: RPMI-8226
# EKVX = tested on: EKVX
# OVCAR-8 = tested on: OVCAR-8
# DMS-273 = tested on: DMS-273
# SNB-78 = tested on: SNB-78
# SK-MEL-28 = tested on: SK-MEL-28
# HOP-92 = tested on: HOP-92
# DMS-114 = tested on: DMS-114
# MOLT-4 = tested on: MOLT-4
# UO-31 = tested on: UO-31
# UACC-62 = tested on: UACC-62
# COLO 205 = tested on: COLO 205
# A549 = tested on: A549
# M14 = tested on: M14
# SNB-19 = tested on: SNB-19
# OVCAR-5 = tested on: OVCAR-5
# LXFL 529 = tested on: LXFL 529
# A498 = tested on: A498
# K562 = tested on: K562
# ACHN = tested on: ACHN
# LOX IMVI = tested on: LOX IMVI
# RXF 393 = tested on: RXF 393
# HT-29 = tested on: HT-29
# 786-0 = tested on: 786-0
# XF498 = tested on: XF498
# IGROV-1 = tested on: IGROV-1
# HOP-62 = tested on: HOP-62
# SK-MEL-2 = tested on: SK-MEL-2
# KM12 = tested on: KM12
smiles,measurement,setting,value
ClC(Cl)=C(Cl)C1(Cl)CC1COCc1ccccc1 (centres undefined),GI50,Malme-3M,18.4 µM (inactive)
same,GI50,NCI-H460,38.5 µM (inactive)
same,GI50,SK-MEL-5,15.8 µM (inactive)
same,GI50,SF-295,25.5 µM (inactive)
same,GI50,M19-MEL,31.4 µM (inactive)
same,GI50,NCI-H23,25.2 µM (inactive)
same,GI50,OVCAR-3,22.6 µM (inactive)
same,GI50,NCI-H522,16.5 µM (inactive)
same,GI50,NCI-H226,22.4 µM (inactive)
same,GI50,DLD-1,38 µM (inactive)
same,GI50,SN12C,39.8 µM (inactive)
same,GI50,HCT-15,33.3 µM
same,GI50,KM-20L2,33.3 µM (inactive)
same,GI50,OVCAR-4,17.6 µM (inactive)
same,GI50,CCRF-CEM,22.3 µM (inactive)
same,GI50,SF-539,51.6 µM (inactive)
same,GI50,SF-268,43.3 µM (inactive)
same,GI50,SW-620,30.9 µM (inactive)
same,GI50,HL-60,15.6 µM (inactive)
same,GI50,SNB-75,37.2 µM (inactive)
same,GI50,CAKI-1,65.8 µM (inactive)
same,GI50,TK-10,60.8 µM (inactive)
same,GI50,UACC-257,26.1 µM (inactive)
same,GI50,HCC 2998,31.6 µM (inactive)
same,GI50,SK-OV-3,39.4 µM (inactive)
same,GI50,RPMI-8226,15.8 µM (inactive)
same,GI50,EKVX,26.1 µM (inactive)
same,GI50,OVCAR-8,33.1 µM (inactive)
same,GI50,DMS-273,42.8 µM (inactive)
same,GI50,SNB-78,4.83 µM (inactive)
same,GI50,SK-MEL-28,56.2 µM (inactive)
same,GI50,HOP-92,15.3 µM (inactive)
same,GI50,DMS-114,20.7 µM (inactive)
same,GI50,MOLT-4,20.9 µM (inactive)
same,GI50,UO-31,25.8 µM (inactive)
same,GI50,UACC-62,22.5 µM (inactive)
same,GI50,COLO 205,25.2 µM (inactive)
same,GI50,A549,26.1 µM (inactive)
same,GI50,M14,32.4 µM (inactive)
same,GI50,SNB-19,36.9 µM (inactive)
same,GI50,OVCAR-5,32.6 µM (inactive)
same,GI50,LXFL 529,51.6 µM (inactive)
same,GI50,A498,52.4 µM (inactive)
same,GI50,K562,30.2 µM (inactive)
same,GI50,ACHN,39.4 µM (inactive)
same,GI50,LOX IMVI,23.1 µM (inactive)
same,GI50,RXF 393,18.1 µM (inactive)
same,GI50,HT-29,24.8 µM (inactive)
same,GI50,786-0,44.3 µM (inactive)
same,GI50,XF498,23.6 µM (inactive)
same,GI50,IGROV-1,47.6 µM (inactive)
same,GI50,HOP-62,25.9 µM (inactive)
same,GI50,SK-MEL-2,17.8 µM (inactive)
same,GI50,KM12,35 µM (inactive)
